Source: US20230111310A1, “CARBOXYLIC ACID DERIVATIVE-SUBSTITUTED IMINO ARYL COMPOUND, PREPARATION METHOD THEREFOR, HERBICIDAL COMPOSITION AND USE THEREOF” (Qingdao Kingagroot Chemical Compound Co., Ltd., priority 2020, published 2023)

Columns and labels:
Test in all cases: Weeding effect in post-emergence stage
Assay type in all cases: in vivo
Abutilon theophrasti = settings: for Weeding effect in post-emergence stage, Abutilon theophrasti (level): fresh weight control rate level; for Weeding effect in post-emergence stage, Abutilon theophrasti: level of fresh weight growth control rate
Source text: (§1) The activity level criteria for plant damage (i.e., growth control rate) are as follows:
(§2) Monocotyledonous and dicotyledonous weed seeds (Descurainia sophia, Capsella bursa-pastoris, Abutilon theophrasti, Galium aparine, Stellaria media, Lithospermum arvense, rorippa indica, Alopecurus aequalis, Alopecurus japonicus, Eleusine indica, Beckmannia syzigachne, Sclerochloa dura, Conyza Canadensis, Phleum paniculatum, Veronica didyma Tenore, Bromus japonicus, Aegilops tauschii, Phalaris arundinacea, Amaranthus retroflexus, Chenopodiaceae, Commelina communis, Sonchus arvensis, Convolvulus arvensis, Cirsium setosum, Bidens tripartita L., Solanum nigrum, Acalypha australis, Digitaria sanguinalis, Echinochloa crusgalli, Setaria viridis, Setaria glauca, Leptochloa chinensis, Monochoria vaginalis, Sagittaria trifolia, Scirpus juncoides, Cyperus rotundus, Cyperus iria, Cyperus difformis, Fimbristylis, Portulaca oleracea, Xanthium sibiricum, Pharbitis nil, etc.) and major crop seeds (wheat, corn, rice, soybean, cotton, oilseed rape, millet, sorghum, potato, sesame, ricinus, etc.) were placed in plastic pots filled with soil, then covered with 0.5-2 cm of soil, allowed to grow in a good greenhouse environment. After 2 weeks of sowing, the test plants were treated in the 2-3 leaf stage. The tested compounds of the present invention were respectively dissolved in acetone, then added with Tween 80 and 1.5 liter/ha of emulsifiable concentrate of methyl oleate as synergist, diluted with a certain amount of water to obtain a solution with a certain concentration, and sprayed with a spray tower onto the plants. After the application, the plants were cultured for 3 weeks in the greenhouse, and then the experimental results of the weeding were counted. […]

Digitaria sanguinalis = settings: Dose 15 g/ha; for Weeding effect in post-emergence stage, Digitaria sanguinalis: level of fresh weight growth control rate
Source text: as §1, §2

Eleusine indica = settings: Dose 15 g/ha; for Weeding effect in post-emergence stage, Eleusine indica: level of fresh weight growth control rate
Source text: as §1, §2

Setaria viridis = settings: Dose 15 g/ha; for Weeding effect in post-emergence stage, Setaria viridis: level of fresh weight growth control rate
Source text: as §1, §2

Echinochloa crusgalli = settings: Dose 15 g/ha; for Weeding effect in post-emergence stage, Echinochloa crusgalli: level of fresh weight growth control rate
Source text: as §1
Monocotyledonous and dicotyledonous weed seeds (Descurainia sophia, Capsella bursa-pastoris, Abutilon theophrasti, Galium aparine, Stellaria media, Lithospermum arvense, rorippa indica, Alopecurus aequalis, Alopecurus japonicus, Eleusine indica, Beckmannia syzigachne, Sclerochloa dura, Conyza Canadensis, Phleum paniculatum, Veronica didyma Tenore, Bromus japonicus, Aegilops tauschii, Phalaris arundinacea, Amaranthus retroflexus, Chenopodiaceae, Commelina communis, Sonchus arvensis, Convolvulus arvensis, Cirsium setosum, Bidens tripartita L., Solanum nigrum, Acalypha australis, Digitaria sanguinalis, Echinochloa crusgalli, Setaria viridis, Setaria glauca, Leptochloa chinensis, Monochoria vaginalis, Sagittaria trifolia, Scirpus juncoides, Cyperus rotundus, Cyperus iria, Cyperus difformis, Fimbristylis, Portulaca oleracea, Xanthium sibiricum, Pharbitis nil, etc.) and major crop seeds (wheat, corn, rice, soybean, cotton, oilseed rape, millet, sorghum, potato, sesame, ricinus, etc.) were placed in plastic pots filled with soil, then covered with 0.5-2 cm of soil, allowed to grow in a good greenhouse environment. After 2 weeks of sowing, the test plants were treated in the 2-3 leaf stage. The tested compounds of the present invention were respectively dissolved in acetone, then added with Tween 80 and 1.5 liter/ha of emulsifiable concentrate of methyl oleate as synergist, diluted with a certain amount of water to obtain a solution with a certain concentration, and sprayed with a spray tower onto the plants. After the application, the plants were cultured for 3 weeks in the greenhouse, and then the experimental results of the weeding were counted. The doses of the used compounds were 500, 250, 125, 60, 30, 15, 7.5 g/ha, and the averages were obtained by repeating for three times.

Alopecurus japonicus = settings: Dose 15 g/ha; fresh weight control rate level
Source text: as §1, §2

[1] = fresh weight control rate level

With `COC(=O)C[C@@H](C)O/N=C/c1cc(-n2c(=O)cc(C(F)(F)F)n(C)c2=O)c(F)cc1Cl` [481(R)] the “Weeding effect in post-emergence stage, Abutilon theophrasti (level)” value (from here on “Weeding effect … Abutilon theophrasti (level)”) (Abutilon theophrasti; Dose 15 g/ha) was 5 (Level 5: growth control rate is above 85%).

`CC(O/N=C/c1cc(-n2c(=O)cc(C(F)(F)F)n(C)c2=O)c(F)cc1Cl)C(=O)OCCOC(=O)C(C)O/N=C/c1cc(-n2c(=O)cc(C(F)(F)F)n(C)c2=O)c(F)cc1Cl` (stereo not shown) [Compound 451] was tested, and the “Weeding effect … Abutilon theophrasti (level)” value (Abutilon theophrasti; Dose 15 g/ha) was 5 (Level 5: growth control rate is above 85%).

In the case of `CCOC(=O)CCO/N=C/c1cc(-n2c(=O)cc(C(F)(F)F)n(C)c2=O)c(F)cc1Cl` [Compound 480], the “Weeding effect … Abutilon theophrasti (level)” value (Abutilon theophrasti; Dose 15 g/ha) is reported as 5 (Level 5: growth control rate is above 85%).

`CC(O/N=C/c1cc(-n2c(=O)n(C)c(=S)n(C)c2=O)c(F)cc1Cl)C(=O)OCc1cccnc1` (stereo not shown) [Compound 59] was tested, and the “Weeding effect in post-emergence stage, Abutilon theophrasti” value (Abutilon theophrasti; Dose 15 g/ha) was 5 (Level 5: growth control rate is above 85%), the “Weeding effect in post-emergence stage, Digitaria sanguinalis” value (Digitaria sanguinalis) was 5 (Level 5: growth control rate is above 85%) and the “Weeding effect in post-emergence stage, Eleusine indica” value (Eleusine indica) was 5 (Level 5: growth control rate is above 85%). The “Weeding effect in post-emergence stage, Setaria viridis” value (Setaria viridis) was 5 (Level 5: growth control rate is above 85%) and the “Weeding effect in post-emergence stage, Echinochloa crusgalli” value (Echinochloa crusgalli) was 5 (Level 5: growth control rate is above 85%).

For `C[C@@H](O/N=C/c1cc(-n2c(=O)cc(C(F)(F)F)n(C)c2=O)c(F)cc1Cl)C(=O)NO` [452(R)], the “Weeding effect … Abutilon theophrasti (level)” value (Abutilon theophrasti; Dose 15 g/ha) was 5 (Level 5: growth control rate is above 85%).

`CCC(C)(O/N=C/c1cc(-n2c(=O)cc(C(F)(F)F)n(C)c2=O)c(F)cc1Cl)C(=O)OC` (racemic) [Compound 471] was tested, and the “Weeding effect … Abutilon theophrasti (level)” value (Abutilon theophrasti; Dose 15 g/ha) was 5 (Level 5: growth control rate is above 85%).

`CC(ON=Cc1cc(-n2c(=O)cc(C(F)(F)F)n(C)c2=O)c(F)cc1Cl)C(=O)OCCOC(=O)C(C)ON=Cc1cc(-n2c(=O)cc(C(F)(F)F)n(C)c2=O)c(F)cc1Cl` [451(R)] was tested, and the “Weeding effect … Abutilon theophrasti (level)” value (Abutilon theophrasti; Dose 15 g/ha) was 5 (Level 5: growth control rate is above 85%).

For `CC(O/N=C/c1cc(-n2c(=O)cc(C(F)(F)F)n(C)c2=O)c(F)cc1Cl)C(=O)NO` (stereo not shown) [Compound 452], the “Weeding effect … Abutilon theophrasti (level)” value (Abutilon theophrasti; Dose 15 g/ha) was 5 (Level 5: growth control rate is above 85%).

With `COC(=O)CCO/N=C/c1cc(-n2c(=O)cc(C(F)(F)F)n(C)c2=O)c(F)cc1Cl` [Compound 479] the “Weeding effect … Abutilon theophrasti (level)” value (Abutilon theophrasti; Dose 15 g/ha) was 5 (Level 5: growth control rate is above 85%).

With `COC(=O)C(C)O/N=C/c1cc(-n2c(=O)cc(C(F)(F)F)n(N)c2=O)c(F)cc1Cl` (stereo not shown) [Control compound E, reference compound] the “Weeding effect in post-emergence stage, Alopecurus japonicus (level)” value (Alopecurus japonicus) was 3 (Level 3: growth control rate is greater than or equal to 40% and less than 60%), the “Weeding effect in post-emergence stage, Digitaria sanguinalis (level)” value (Digitaria sanguinalis; [1]) was 3 (Level 3: growth control rate is greater than or equal to 40% and less than 60%) and the “Weeding effect in post-emergence stage, Eleusine indica (level)” value (Eleusine indica; [1]) was 3 (Level 3: growth control rate is greater than or equal to 40% and less than 60%). The “Weeding effect in post-emergence stage, Setaria viridis (level)” value (Setaria viridis; [1]) was 4 (Level 4: growth control rate is greater than or equal to 60% and less than 85%) and the “Weeding effect in post-emergence stage, Echinochloa crusgalli (level)” value (Echinochloa crusgalli; [1]) was 4 (Level 4: growth control rate is greater than or equal to 60% and less than 85%).

With `COC(=O)[C@@H](C)O/N=C/c1cc(-n2c(=O)c(Br)c(C(F)(F)F)n(C)c2=O)c(F)cc1Cl` [475(R)] the “Weeding effect … Abutilon theophrasti (level)” value (Abutilon theophrasti; Dose 15 g/ha) was 5 (Level 5: growth control rate is above 85%).

For `CC(O/N=C/c1cc(-n2c(=O)c(CCO)c(C(F)(F)F)n(C)c2=O)c(F)cc1Cl)C(=O)OCCO` (racemic) [Compound 478], the “Weeding effect … Abutilon theophrasti (level)” value (Abutilon theophrasti; Dose 60 g/ha) was 5 (Level 5: growth control rate is above 85%).

`COC(=O)CC(C)O/N=C/c1cc(-n2c(=O)cc(C(F)(F)F)n(C)c2=O)c(F)cc1Cl` (racemic) [Compound 481] was tested, and the “Weeding effect … Abutilon theophrasti (level)” value (Abutilon theophrasti; Dose 15 g/ha) was 5 (Level 5: growth control rate is above 85%).

With `CCCC(O/N=C/c1cc(-n2c(=O)n(C)c(=S)n(C)c2=O)c(F)cc1Cl)C(=O)OCC` (stereo not shown) [Compound 74] the “Weeding effect in post-emergence stage, Abutilon theophrasti” value (Abutilon theophrasti; Dose 15 g/ha) was 5 (Level 5: growth control rate is above 85%), the “Weeding effect in post-emergence stage, Digitaria sanguinalis” value (Digitaria sanguinalis) was 4 (Level 4: growth control rate is greater than or equal to 60% and less than 85%) and the “Weeding effect in post-emergence stage, Eleusine indica” value (Eleusine indica) was 4 (Level 4: growth control rate is greater than or equal to 60% and less than 85%). The “Weeding effect in post-emergence stage, Setaria viridis” value (Setaria viridis) was 5 (Level 5: growth control rate is above 85%) and the “Weeding effect in post-emergence stage, Echinochloa crusgalli” value (Echinochloa crusgalli) was 5 (Level 5: growth control rate is above 85%).

`CCC[C@@H](O/N=C/c1cc(-n2c(=O)n(C)c(=S)n(C)c2=O)c(F)cc1Cl)C(=O)OCC` [74(R)] was tested, and the “Weeding effect in post-emergence stage, Abutilon theophrasti” value (Abutilon theophrasti; Dose 15 g/ha) was 5 (Level 5: growth control rate is above 85%), the “Weeding effect in post-emergence stage, Digitaria sanguinalis” value (Digitaria sanguinalis) was 4 (Level 4: growth control rate is greater than or equal to 60% and less than 85%) and the “Weeding effect in post-emergence stage, Eleusine indica” value (Eleusine indica) was 5 (Level 5: growth control rate is above 85%). The “Weeding effect in post-emergence stage, Setaria viridis” value (Setaria viridis) was 5 (Level 5: growth control rate is above 85%) and the “Weeding effect in post-emergence stage, Echinochloa crusgalli” value (Echinochloa crusgalli) was 5 (Level 5: growth control rate is above 85%).

In the case of `COC(=O)C(C)O/N=C/c1cc(-n2c(=O)c(OC)c(C(F)(F)F)n(C)c2=O)c(F)cc1Cl` (racemic) [Compound 477], the “Weeding effect … Abutilon theophrasti (level)” value (Abutilon theophrasti; Dose 15 g/ha) is reported as 5 (Level 5: growth control rate is above 85%).

In the case of `COC(=O)[C@@H](C)O/N=C/c1cc(-n2c(=O)c(OC)c(C(F)(F)F)n(C)c2=O)c(F)cc1Cl` [477(R)], the “Weeding effect … Abutilon theophrasti (level)” value (Abutilon theophrasti; Dose 15 g/ha) is reported as 5 (Level 5: growth control rate is above 85%).

With `C[C@@H](O/N=C/c1cc(-n2c(=O)c(CCO)c(C(F)(F)F)n(C)c2=O)c(F)cc1Cl)C(=O)OCCO` [478(R)] the “Weeding effect … Abutilon theophrasti (level)” value (Abutilon theophrasti; Dose 60 g/ha) was 5 (Level 5: growth control rate is above 85%).

For `COC(=O)C(C)O/N=C/c1cc(-n2c(=O)n(C)c(=S)n(C)c2=O)c(F)cc1C(F)(F)F` (racemic) [Compound 85], the “Weeding effect in post-emergence stage, Abutilon theophrasti” value (Abutilon theophrasti; Dose 15 g/ha) was 5 (Level 5: growth control rate is above 85%), the “Weeding effect in post-emergence stage, Digitaria sanguinalis” value (Digitaria sanguinalis) was 5 (Level 5: growth control rate is above 85%) and the “Weeding effect in post-emergence stage, Eleusine indica” value (Eleusine indica) was 5 (Level 5: growth control rate is above 85%). The “Weeding effect in post-emergence stage, Setaria viridis” value (Setaria viridis) was 5 (Level 5: growth control rate is above 85%) and the “Weeding effect in post-emergence stage, Echinochloa crusgalli” value (Echinochloa crusgalli) was 5 (Level 5: growth control rate is above 85%).

With `CC[C@@](C)(O/N=C/c1cc(-n2c(=O)cc(C(F)(F)F)n(C)c2=O)c(F)cc1Cl)C(=O)OC` [471(R)] the “Weeding effect … Abutilon theophrasti (level)” value (Abutilon theophrasti; Dose 15 g/ha) was 5 (Level 5: growth control rate is above 85%).

With `COC(=O)C(C)O/N=C/c1cc(-n2c(=O)c(I)c(C(F)(F)F)n(C)c2=O)c(F)cc1Cl` (racemic) [Compound 476] the “Weeding effect … Abutilon theophrasti (level)” value (Abutilon theophrasti; Dose 15 g/ha) was 5 (Level 5: growth control rate is above 85%).

With `COC(=O)[C@@H](C)O/N=C/c1cc(-n2c(=O)c(I)c(C(F)(F)F)n(C)c2=O)c(F)cc1Cl` [476(R)] the “Weeding effect … Abutilon theophrasti (level)” value (Abutilon theophrasti; Dose 15 g/ha) was 5 (Level 5: growth control rate is above 85%).

`COC(=O)C(C)O/N=C/c1cc(-n2c(=O)c(Br)c(C(F)(F)F)n(C)c2=O)c(F)cc1Cl` (racemic) [Compound 475] was tested, and the “Weeding effect … Abutilon theophrasti (level)” value (Abutilon theophrasti; Dose 15 g/ha) was 5 (Level 5: growth control rate is above 85%).
